Laboratory results reported in patent US20100129515A1, “FLAVOUR MODULATING SUBSTANCES” (QUEST INTERNATIONAL SERVICES B.V., priority 2005, published 2010).

Columns and labels:
[1] = Taste of solutions in water (Example 7); type: in vivo
[2] = Tasting of fondant with 2500 ppm menthol by professional panel (Example 8); type: in vivo
Procedure: Three samples of fondant were prepared by mixing 65% Fondacreme (ex Belgosuc NV Belgium) with 35% sugar syrup (67° Brix). 2500 Ppm menthol was added as a 50% solution in propylene glycol.
To a first sample (sample A), 0.1 ppm N-vanillyl-N′-octyl urea was added To a second sample (sample B), 0.2 ppm N-vanillyl-N′-octyl thiourea was added. Samples A, B and the reference sample were tasted by a professional panel. […] The cooling was perceived more through the whole oral cavity.

[3] = Tasting of 0.6% NaCl / 0.03% MSG solutions by professional panel (Examples 9 and 10); type: in vivo
Procedure: Three solutions of 0.6% NaCl and 0.03% MSG were prepared.
To a first solution (sample A), 0.1 ppm N-vanillyl-N′-octyl urea was added To a second solution (sample B) 0.2 ppm N-vanillyl-N′-octyl thiourea was added.
(§1) Samples A and B and the reference sample were tasted by a professional panel.
To a first solution (sample A), 5 ppm N-vanillyl-N′-octyl urea was added To a second solution (sample B), 10 ppm N-vanillyl-N′-octyl thiourea was added.

[4] = Tasting of 0.6% NaCl / 0.03% MSG / 4 ppm pepper oleoresin solutions by professional panel (Example 11); type: in vivo
Procedure: Three solutions of 0.6% NaCl and 0.03% MSG and 4 ppm pepper oleoresin (ex Warner Jenkinson, St Louis, USA) were prepared.
To a first solution (sample A), 1 ppm N-vanillyl-N′-octyl urea was added To a second solution (sample B), 2 ppm N-vanillyl-N′-octyl thiourea was added.
as §1

[5] = Tasting of toothpaste by professional panel (Example 13); type: in vivo
Procedure: 97 g of a toothpaste base was prepared as follows: 13.8 ml demineralised water, 0.1 g trisodium phosphate (12H2O) and 0.8 g sodium monofluorophosphate were weighed and mixed until clear. 50.0 g of sorbitol was added and the blend was mixed again. The obtained mixture was placed in a Fryma pot. A poly bag was placed in a suitable container and 8.0 g of precipitated silica AC30, 9.0 g of precipitated silica TC15, 0.8 g of sodium carboxymethylcellulose (SCMC 9M31XF) and 1.0 g of a colorant (Tiona (1700)) were weighed and placed in the bag in the order listed. The top of the bag was secured with a tag and the contents were thoroughly mixed to distribute the gum throughout the mixture.
This mixture was added to the Fryma pot. Then 7.0 ml of demineralised water, 1.5 g of sodium lauryl sulphate (Empicol LXV100C) and 5.0 g of PEG 1500 were placed in a beaker and heated to 45° C. and mixed with a Turrax to disperse the ingredients. The dispersion was placed on a magnetic stirrer until clear (while covered with cling film) and was subsequently added to the Fryma pot.
To this base toothpaste 0.8 g of a 25% saccharin soln was added. Part of the base toothpaste was then intensively mixed with N-vanillyl-N′-octyl urea (as obtained in Example 4) to obtain a 0.1 ppm concentration of N-vanillyl-N′-octyl urea (sample A). […]

[6] = cited from earlier work; for pungency: compared with capsaicin; for taste: as a dry powder and as an alcoholic or aqueous solution
[7] = Tasting of 5% (w/w) ethanol solutions by trained flavourist panel (Example 2); type: in vivo; conditions: reference 5% (w/w) alcoholic solution
Procedure: The solid product obtained in example 1 was dissolved in ethanol/water (1:1, w/w) to prepare a 1000 ppm stock solution.
The following 3 alcoholic solutions are prepared: A: 1 ppm N-vanillyl urea as obtained in example 1
B: 10 ppm N-vanillyl urea as obtained in example 1
C: 100 ppm N-vanillyl urea as obtained in example 1
All solutions were tasted by a trained flavourist panel and compared to a 5% (w/w) alcoholic solution (the reference).

[8] = Tasting of 0.6% sodium chloride / 0.03% mono sodium glutamate solution by trained flavourist panel (Example 3); type: in vivo; conditions: 10 ppm in 0.6% sodium chloride, compared with solution A without substance
Procedure: 2 solutions were prepared containing respectively:
0.03% mono sodium glutamate
10 ppm N-vanillyl urea as described in example 1
Both solutions were tasted by a trained flavourist panel, which described the solutions as follows: […]

[9] = Tasting of 10 ppm menthol solution by trained flavourist panel (Example 4); type: in vivo; conditions: 1 ppm added to 10 ppm menthol solution; compared to the base
Procedure: 1 ppm N-vanillyl urea as described in example 1 was added to a 10 ppm menthol solution and compared to the base. Both solutions were tasted by a trained flavourist panel, which described the solutions as follows: […]

## CCCCCCCCNC(=O)NCc1ccc(O)c(OC)c1 [N-vanillyl-N′-octyl urea, N-octyl-N′-vanillyl urea]
[1]; 1 ppm in water
  taste of solution in water: strong tingling and burning taste
[2]; 0.1 ppm in fondant with 2500 ppm menthol
  cooling effect compared to the reference sample: more intense and long-lasting cooling effect compared to the reference sample
[3]; 0.1 ppm in 0.6% NaCl
  onset of salt impression compared to the reference: came faster than in the reference
  saltiness compared to the reference sample: more salty compared to the reference sample
[3]; 5 ppm in 0.6% NaCl
  duration of hotness: up to 10 minutes
  onset of salt impression compared to the reference sample: came faster than in the reference sample
  saltiness and hotness compared to the reference sample: more salty and had a ‘clean’ and long lasting (up to 10 minutes) hotness compared to the reference sample
[4]; 1 ppm in 0.6% NaCl
  hotness and overall impression compared to the reference sample: clearly more hot than the reference sample and the overall impression is much stronger
[5]; 0.1 ppm in toothpaste
  cooling effect compared with the base toothpaste: more aggressive cooling and more cooling volume in the oral cavity than the base

## COc1cc(CNC(=S)Nc2ccc(C)cc2)ccc1O [p-tolylvanillyithiourea]
[6]
  pungency: property of pungency but to a lesser degree than capsaicin

## COc1cc(CNC(N)=S)ccc1O [N-vanillyl thiourea]
[1]; 25 ppm in water
  taste of solution in water: tingling, burning and slightly bitter taste and a weak vanillin-like flavour sensation
[6]
  taste: tasteless

## COc1cc(CNC(N)=O)ccc1O [N-vanillyl urea]
[7]; 1 ppm in 5% (w/w) ethanol
  taste compared to the reference: more alcohol-like bite than the reference
[7]; 10 ppm in 5% (w/w) ethanol
  taste compared to the reference: stronger hot, sharp and pungent, ethanol-like taste compared to the reference solution
[7]; 100 ppm in 5% (w/w) ethanol
  taste compared to the reference: stronger hot, sharp and pungent, ethanol-like taste compared to the reference solution
[8]
  taste description: more salty, umami, warm, bite, preferred to A
[9]
  taste description: powerful and full cooling sensation, preferred to the base
[1]; 50 ppm in water
  taste of solution in water: slightly tingling taste and a weak vanillin-like flavour sensation
[6]
  taste: tasteless

## CCNC(=O)C1CC(C)CCC1C(C)C (stereo not drawn) [WS-3, reference compound]
[5]; 10 ppm in toothpaste
  cooling effect compared with the base toothpaste: in between sample A and the base in cooling strength

## o-tolylvanillylthiourea
[6]
  pungency: property of pungency but to a lesser degree than capsaicin

## phenylvanillylthiourea
[6]
  taste: tasteless
  pungency: property of pungency but to a lesser degree than capsaicin

## CCCCCCCCNC(=S)NCc1ccc(O)c(OC)c1 [N-vanillyl-N′-octyl thiourea]
[2]; 0.2 ppm in fondant with 2500 ppm menthol, relative to sample A
  cooling effect compared to the reference sample: the same effects but slightly weaker
[3]; 0.2 ppm in 0.6% NaCl, relative to sample A
  salt effects compared to the reference sample: the same effects but slightly weaker
[3]; 10 ppm in 0.6% NaCl, relative to sample A
  salt and hotness effects compared to the reference sample: the same effects but slightly weaker
[4]; 2 ppm in 0.6% NaCl, relative to sample A
  hotness and overall impression compared to the reference sample: the same effects but slightly weaker
